Patent US10815224B2, “Monocyclic heteroaryl substituted compounds” (Bristol-Myers Squibb Company, priority 2016, dated 2020)

What follows are molecules tested against T1, PAR4 (Homo sapiens, UniProt Q96RI0) (assay: PAR4 FLIPR assay: calcium mobilization in PAR4-expressing HEK293 cells).
T1 construct: expressed in transfected cells; host or cells: HEK293 PAR4 Clone 1.2A (BMS Arctic ID 383940)
T1 sequence (Q96RI0 18-385): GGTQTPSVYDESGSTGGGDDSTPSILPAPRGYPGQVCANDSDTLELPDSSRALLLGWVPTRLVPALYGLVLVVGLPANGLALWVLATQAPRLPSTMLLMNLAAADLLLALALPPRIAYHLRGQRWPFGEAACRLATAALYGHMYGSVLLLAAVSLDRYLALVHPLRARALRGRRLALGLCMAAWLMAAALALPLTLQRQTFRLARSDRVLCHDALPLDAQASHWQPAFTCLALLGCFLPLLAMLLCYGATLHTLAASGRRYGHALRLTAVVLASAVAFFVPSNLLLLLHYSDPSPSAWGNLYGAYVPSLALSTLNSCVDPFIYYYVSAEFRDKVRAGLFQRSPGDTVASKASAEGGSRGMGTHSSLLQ
Assay type: cell-based
Description: The FLIPR assay is an exemplary in vitro assay for measuring the activity of the PAR4 antagonists of the present invention. In this assay, intracellular calcium mobilization is induced in PAR4 expressing cells by a PAR4 agonist and calcium mobilization is monitored.
HEK293 cells stably expressing PAR4 were generated by a standard method of transfection of human PAR4 (F2R23) cDNA expression vector and selected based on PAR4 protein expression or mRNA expression. […] Therefore, the same cells were also used to determine selectivity against PAR1 and agonist activity for both receptors.
FLIPR-based calcium mobilization assay in HEK293 cells was used to measure PAR4 antagonism, agonism, and selectivity against PAR1. […] Counter screens for agonist activity and PAR1 antagonist activity were also performed. […] Cells were plated overnight prior to the experiment in a black 384-well Purecoat Amine clear bottom plate (Becton Dickinson Biosciences, San Jose, Calif.) at 10,000 cells/well in 30 μL growth medium and incubated in a humidified chamber at 37° C. with 5% CO2 overnight. Prior to compound addition, the cell medium was replaced with 40 μL of 1× calcium and magnesium-containing Hank's Balanced Saline Solution (HBSS) (with 20 mM HEPES) and 1:1000 diluted fluorescent calcium indicator (Codex Biosolutions, Gaithersburg, Md.). After a 30 minute incubation period at 37° C., and a further 30 minute incubation and equilibration period at room temperature, 20 μL test compound (diluted in 1×HBSS buffer) was added at various concentrations at 0.17% dimethyl sulfoxide (DMSO) final concentration. Changes in fluorescence intensity were measured using a Functional Drug Screening System (FDSS, Hamamatsu, Japan) to determine agonist activities. The cells were then incubated for 30 minutes at room temperature followed by addition of 20 μL of agonist peptide for antagonist activity measurement. […] Compound potency was derived from 11-point concentration-response curves.

Row | SMILES | IC50
1 | COc1cnc2c(-c3cc(-c4ccccc4)no3)cc(C)cc2n1 [Example 1, 5-(2-methoxy-7-methylquinoxalin-5-yl)-3-phenylisoxazole] | 80 nM
2 | Cc1cc(-c2cnn(-c3ccccc3)c2)c2ncc(OC(F)F)nc2c1 [Example 2, 2-(difluoromethoxy)-7-methyl-5-(1-phenyl-1H-pyrazol-4-yl)quinoxaline] | 790 nM
3 | Cc1cc(-c2cnc(-c3ccccc3)s2)c2ncc(OC(F)F)nc2c1 [Example 3, 5-(2-(difluoromethoxy)-7-methylquinoxalin-5-yl)-2-phenylthiazole] | 330 nM
4 | Cc1cc(-c2ncc(C)s2)c2ncc(OC(F)F)nc2c1 [Example 4, 2-(2-(difluoromethoxy)-7-methylquinoxalin-5-yl)-5-methylthiazole] | 520 nM
5 | Cc1cc(-c2ccsn2)c2ncc(OC(F)F)nc2c1 [Example 5, 3-(2-(difluoromethoxy)-7-methylquinoxalin-5-yl)isothiazole] | 940 nM
6 | Cc1cc(-c2nc(C)c(-c3cccc(O)c3)s2)c2ncc(OC(F)F)nc2c1 [Example 6, 3-(2-(2-(difluoromethoxy)-7-methylquinoxalin-5-yl)-4-methylthiazol-5-yl)phenol] | 1 nM
7 | Cc1cc(-c2ncc(Cc3ccccc3)s2)c2ncc(OC(F)F)nc2c1 [Example 7, 5-benzyl-2-(2-(difluoromethoxy)-7-methylquinoxalin-5-yl)thiazole] | 95 nM
8 | C=Cc1csc(-c2cc(C)cc3nc(OC(F)F)cnc23)n1 [Example 8, 2-(2-(difluoromethoxy)-7-methylquinoxalin-5 yl)-4-vinylthiazole] | 100 nM
9 | Cc1cc(-c2nc(C)c(-c3ccn[nH]3)s2)c2ncc(OC(F)F)nc2c1 [Example 9, 2-(2-(difluoromethoxy)-7-methylquinoxalin-5-yl)-4-methyl-5-(1H-pyrazol-5-yl)thiazole] | 5 nM
10 | Cc1cc(-c2nc(C3CC3)cs2)c2ncc(OC(F)F)nc2c1 [Example 10, 4-cyclopropyl-2-(2-(difluoromethoxy)-7-methylquinoxalin-5-yl)thiazole] | 300 nM
11 | Cc1cc(-c2nc(C)c(-c3cc(F)ccc3O)s2)c2ncc(OC(F)F)nc2c1 [Example 11, 2-(2-(2-(difluoromethoxy)-7-methylquinoxalin-5-yl)-4-methylthiazol-5-yl)-4-fluoropheno] | 7.5 nM
12 | Cc1cc(-c2nc(C)c(-c3c(O)cccc3F)s2)c2ncc(OC(F)F)nc2c1 [Example 12, 2-(2-(2-(difluoromethoxy)-7-methylquinoxalin-5-yl)-4-methylthiazol-5-yl)-3-fluoropheno] | 8.1 nM
13 | Cc1cc(-c2ncc(N3CCCCC3)s2)c2ncc(OC(F)F)nc2c1 [Example 13, 2-(2-(difluoromethoxy)-7-methylquinoxalin-5-yl)-5-(piperidin-1-yl)thiazole] | 12 nM
14 | Cc1cc(-c2ncc(-c3cncc(O)c3)s2)c2ncc(OC(F)F)nc2c1 [Example 14, 5-(2-(2-(difluoromethoxy)-7-methylquinoxalin-5-yl)thiazol-5-yl)pyridin-3-ol] | 170 nM
15 | Cc1cc(-c2nc(C)c(-c3ccccc3O)s2)c2ncc(OC(F)F)nc2c1 [Example 15, 2-(2-(2-(difluoromethoxy)-7-methylquinoxalin-5-yl)-4-methylthiazol-5-yl)phenol] | 5.9 nM
16 | Cc1cc(-c2ncc(-c3ccccc3C(F)(F)F)s2)c2ncc(OC(F)F)nc2c1 [Example 16, 2-(2-(difluoromethoxy)-7-methylquinoxalin-5-yl)-5-(2-(trifluoromethyl)phenyl)thiazole] | 110 nM
17 | Cc1cc(-c2ncc(C3CCCCC3)s2)c2ncc(OC(F)F)nc2c1 [Example 17, 5-cyclohexyl-2-(2-(difluoromethoxy)-7-methylquinoxalin-5-yl)thiazole] | 75 nM
18 | COCc1cnc2c(-c3ncc(-c4ccccc4)s3)cc(C)cc2n1 [Example 18, 2-(2-(methoxymethyl)-7-methylquinoxalin-5-yl)-5-phenylthiazole] | 6.2 nM
19 | Cc1cc(-c2ncc(-c3cccc(F)c3O)s2)c2ncc(OC(F)F)nc2c1 [Example 19, 2-(2-(2-(difluoromethoxy)-7-methylquinoxalin-5-yl)thiazol-5-yl)-6-fluorophenol] | 5.9 nM
20 | Cc1ccc(O)c(-c2cnc(-c3cc(C)cc4nc(OC(F)F)cnc34)s2)c1 [Example 20, 2-(2-(2-(difluoromethoxy)-7-methylquinoxalin-5-yl)thiazol-5-yl)-4-methylphenol] | 31 nM
21 | Cc1cc(-c2ncc(-c3cc(F)ccc3O)s2)c2ncc(OC(F)F)nc2c1 [Example 21, 2-(2-(2-(difluoromethoxy)-7-methylquinoxalin-5-yl)thiazol-5-yl)-4-fluorophenol] | 8.8 nM
22 | Cc1cc(-c2ncc(-c3cc(Cl)ccc3O)s2)c2ncc(OC(F)F)nc2c1 [Example 22, 2-(2-(2-(difluoromethoxy)-7-methylquinoxalin-5-yl)thiazol-5-yl)-4-chlorophenol] | 18 nM

The next lines start with the values.

Row | IC50 | SMILES
23 | 14 nM | Cc1cc(-c2ncc(-c3cccc(Cl)c3O)s2)c2ncc(OC(F)F)nc2c1 [Example 23, 2-(2-(2-(difluoromethoxy)-7-methylquinoxalin-5-yl)thiazol-5-yl)-6-chlorophenol]
24 | 8.3 nM | Cc1cc(-c2ncc(-c3c(O)cccc3F)s2)c2ncc(OC(F)F)nc2c1 [Example 24, 2-(2-(2-(difluoromethoxy)-7-methylquinoxalin-5-yl)thiazol-5-yl)-3-fluorophenol]
25 | 15 nM | Cc1cc(-c2ncc(-c3cc(O)ccc3F)s2)c2ncc(OC(F)F)nc2c1 [Example 25, 3-(2-(2-(difluoromethoxy)-7-methylquinoxalin-5-yl)thiazol-5-yl)-4-fluorophenol]
26 | 23 nM | Cc1cc(-c2ncc(-c3cc(O)cc(F)c3)s2)c2ncc(OC(F)F)nc2c1 [Example 26, 3-(2-(2-(difluoromethoxy)-7-methylquinoxalin-5-yl)thiazol-5-yl)-5-fluorophenol]
27 | 20 nM | Cc1cc(-c2ncc(-c3cc(O)ccc3OC(F)(F)F)s2)c2ncc(OC(F)F)nc2c1 [Example 27]
28 | 43 nM | Cc1cc(-c2ncc(-c3ccccc3)s2)c2ncc(OC(F)F)nc2c1 [Example 28, 2-(2-(difluoromethoxy)-7-methylquinoxalin-5-yl)-5-phenyl thiazole]
29 | 60 nM | Cc1cc(-c2ncc(-c3cccnc3)s2)c2ncc(OC(F)F)nc2c1 [Example 29, 2-(2-(difluoromethoxy)-7-methylquinoxalin-5-yl)-5-(pyridin-3-yl)thiazole]
30 | 8.8 nM | Cc1cc(-c2ncc(-c3ccccc3O)s2)c2ncc(OC(F)F)nc2c1 [Example 30, 2-(2-(2-(difluoromethoxy)-7-methylquinoxalin-5-yl)thiazol-5-yl)phenol]
31 | 450 nM | CCNC(=O)c1cnc(-c2cc(C)cc3nc(OC)cnc23)s1 [Example 31, N-ethyl-2-(2-methoxy-7-methylquinoxalin-5-yl)thiazole-5-carboxamide]
32 | 2300 nM | COc1ccc(NC(=O)c2csc(-c3cc(C)cc4nc(OC(F)F)cnc34)n2)cc1 [Example 32, 2-(2-(difluoromethoxy)-7-methylquinoxalin-5-yl)-N-(4-methoxyphenyl)thiazole-4-carboxamide]
33 | 570 nM | Cc1cc(-c2nc(C(=O)N3CCC(CO)CC3)cs2)c2ncc(OC(F)F)nc2c1 [Example 33, (2-(2-(difluoromethoxy)-7-methylquinoxalin-5-yl)thiazol-4-yl)(4-(hydroxymethyl)piperidin-1-yl)methanone]
34 | 760 nM | Cc1cc(-c2nccs2)c2ncc(OC(F)F)nc2c1 [Example 34, 2-(2-(difluoromethoxy)-7-methylquinoxalin-5-yl)thiazole]
35 | 25 nM | Cc1cc(-c2nnc(-c3ccccc3)s2)c2ncc(OC(F)F)nc2c1 [Example 35, 2-(2-(difluoromethoxy)-7-methylquinoxalin-5-yl)-5-phenyl-1,3,4-thiadiazole]
36 | 64 nM | Cc1cc(-c2nc(C)cs2)c2ncc(OC(F)F)nc2c1 [Example 36, 2-(2-(difluoromethoxy)-7-methylquinoxalin-5-yl)-4-methylthiazole]
37 | 60 nM | Cc1cc(-c2ncc(-c3cccc4cc[nH]c34)s2)c2ncc(OC(F)F)nc2c1 [Example 37, 2-(2-(difluoromethoxy)-7-methylquinoxalin-5-yl)-5-(1H-indol-7-yl)thiazole]
